# US7943654B2, “1H-thieno[2,3-c]pyrazole compounds useful as kinase inhibitors” (Nerviano Medical Sciences S.R.L., priority 2005, dated 2011)
# Assays:
# [1] = target: T1, Aurora-2 (Homo sapiens, UniProt O14965); assay: Inhibition assay of Aurora-2 activity (SPA); format: biochemical; conditions: 10 μM ATP, 60 minutes at room temperature
# T1 sequence (O14965 1-403): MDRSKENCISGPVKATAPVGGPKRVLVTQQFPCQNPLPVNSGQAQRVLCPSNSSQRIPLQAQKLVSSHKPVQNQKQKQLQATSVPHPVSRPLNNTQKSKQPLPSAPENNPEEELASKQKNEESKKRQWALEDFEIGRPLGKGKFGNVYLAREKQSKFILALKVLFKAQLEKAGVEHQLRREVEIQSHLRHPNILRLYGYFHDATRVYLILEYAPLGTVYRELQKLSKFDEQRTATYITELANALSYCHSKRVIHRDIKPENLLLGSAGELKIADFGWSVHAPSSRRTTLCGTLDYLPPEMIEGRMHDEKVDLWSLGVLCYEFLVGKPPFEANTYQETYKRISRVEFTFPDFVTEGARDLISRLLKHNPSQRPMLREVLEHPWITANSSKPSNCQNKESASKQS
# Method: The inhibiting activity and the potency of selected compounds is determined through a method of assay based on the use of the SPA technology (Amersham Pharmacia Biotech).
# The assay consists of the transfer of radioactivity labelled phosphate moiety by the kinase to a biotinylated substrate. The resulting 33P-labelled biotinylated product is allowed to bind to streptavidin-coated SPA beads (biotin capacity 130 pmol/mg), and light emitted was measured in a scintillation counter.
# Inhibition Assay of Aurora-2 Activity
# Kinase reaction: 8 μM biotinylated peptide (4 repeats of LRRWSLG) (SEQ ID NO:2), 10 μM ATP (0.5 uCiP^33 γ-ATP), 7.5 ng Aurora 2, inhibitor in a final volume of 30 μl buffer (HEPES 50 mM pH 7.0, MgCl2 10 mM, 1 mM DTT, 0.2 mg/mL BSA, 3 μM orthovanadate) were added to each well of a 96 U bottom well plate. After 60 minutes at room temperature incubation, reaction was stopped and biotinylated peptide captured by adding 100 μl of bead suspension.
# Stratification: 100 μl of CsCl 5 M were added to each well and let stand 4 hour before radioactivity was counted in the Top-Count instrument.
# IC50 determination: inhibitors were tested at different concentrations ranging from 0.0015 to 10 μM. […]
# [2] = system: human colon cancer cell line HCT-116; assay: In vitro cell proliferation assay; format: cell-based; conditions: HCT-116, 72 hours of treatment, cell count, read-out: Cell Antiproliferation IC50
# Method: The compounds of the invention were further tested, in vitro to assess the anti-proliferative effect onto cell cultures.
# In Vitro Cell Proliferation Assay
# The human colon cancer cell line HCT-116 was seeded at 5000 cells/cm^2 in 24 wells plate (Costar) using F12 medium (Gibco) supplemented with 10% FCS (EuroClone, Italy) 2 mM L-glutamine and 1% penicillin/streptomycin and maintained at 37° C., 5% CO2 and 96% relative humidity. The following day, plates were treated in duplicates with 5 ul of an appropriate dilution of compounds starting from a 10 mM stock in DMSO. Two untreated control wells were included in each plate. After 72 hours of treatment, medium was withdrawn and cells detached from each well using 0.5 mL of 0.05% (w/v) Trypsin, 0.02% (w/v) EDTA (Gibco). Samples were diluted with 9.5 mL of Isoton (Coulter) and counted using a Multisizer 3 cell counter (Beckman Coulter). Data were evaluated as percent of the control wells: % of CTR=(Treated−Blank)/(Control−Blank).
# IC50 values were calculated by LSW/Data Analysis using Microsoft Excel sigmoidal curve fitting.
IC50 [1],IC50 [2],SMILES
6 nM,7 nM,"CC(C)(NC(=O)c1cc2c(NC(=O)c3ccccc3NC(=O)c3ccc[nH]3)n[nH]c2s1)c1ccccc1 [Compound (1), 3-{2-[(1H-pyrrole-2-carbonyl)-amino]-benzoylamino}-1H-thieno[2,3-c]pyrazole-5-carboxylic acid (1-methyl-1-phenyl-ethyl)-amide]"
12 nM,54 nM,"CC(C)(NC(=O)c1cc2c(NC(=O)c3ccccc3NC(=O)c3ccc[nH]3)n[nH]c2s1)c1ccccc1F [Compound (2), 3-{2-[(1H-pyrrole-2-carbonyl)-amino]-benzoylamino}-1H-thieno[2,3-c]pyrazole-5-carboxylic acid [1-(2-fluoro-phenyl)-1-methyl-ethyl]-amide]"
